Data set [1] has as its target T1, recombinant human plasminogen activator inhibitor-1 (PAI-1) (Homo sapiens, UniProt P05121).
T1 construct: purchased Molecular Innovations, Royal Oak, Mich
Kind of data set: Primary Screen for the PAI-1 Inhibition (residual tPA activity, Spectrozyme-tPA chromogenic substrate). It counts as biochemical. Conditions: pH 6.6 buffer; for inhibition at 10 µM: 10 μM test compound; for inhibition at 25 µM: 25 μM test compound. The protocol: Test compounds are dissolved in DMSO at a final concentration of 10 mM, then diluted 100×in physiologic buffer. The inhibitory assay is initiated by the addition of the test compound (1-100 μM final concentration, maximun DMSO concentration of 0.2%) in a pH 6.6 buffer containing 140 Mn recombinant human plasminogen activator inhibitor-1 (PAI-1; Molecular Innovations, Royal Oak, Mich.). Following a 1 hour incubation at room temperature, 70 Mn of recombinant human tissue plasminogen activator (tPA) is added, and the combination of the test compound, PAI-1 and tPA is incubated for an additional 30 minutes. Following the second incubation, Spectrozyme-tPA (American Diagnostica, Greenwich, Conn.), a chromogenic substrate for tPA, is added and absorbance read at 405 nm at 0 and 60 minutes. Relative PAI-1 inhibition is equal to the residual tPA activity in the presence of the test compound and PAI-1. Control treatments include the complete inhibition of tPA by PAI-1 at the molar ratio employed (2:1), and the absence of any effect of the test compound on tPA alone.

The next data set has as its target human PAI-1 (Homo sapiens, UniProt P05121). Kind of data set: Assay for determining IC50 of inhibition of PAI-1 (Antibody Assay, active PAI-1 bound to tPA-coated plate). The data set is classed as binding. Conditions: pH 7.5 buffer, human PAI-1 50 ng/ml. As for the experimental part:
This assay is based upon the non-SDS dissociable interaction between tPA and active PAI-1. Assay plates are initially coated with human tPA (10 μg/ml). Test compounds of the present invention are dissolved in DMSO at 10 mM, then diluted with physiologic buffer (pH 7.5) to a final concentration of 1-50 μM. Test compounds are incubated with human PAI-1 (50 ng/ml) for 15 minutes at room temperature. The tPA-coated plate is washed with a solution of 0.05% Tween 20 and 0.1% BSA, then the plate is blocked with a solution of 3% BSA. An aliquot of the oxazolo-naphthyl acid/PAI-1 solution is then added to the tPA-coated plate, incubated at room temperature for 1 hour, and washed. Active PAI-1 bound to the plate is assessed by adding an aliquot of a 1:1000 dilution of the 33B8 monoclonal antibody against human PAI-1, and incubating the plate at room temperature for 1 hour (Molecular Innovations, Royal Oak, Mich.). The plate is again washed, and a solution of goat anti-mouse IgG-alkaline phosphatase conjugate is added at a 1:50,000 dilution in goat serum. The plate is incubated 30 minutes at room temperature, washed, and a solution of alkaline phosphatase substrate is added. The plate is incubated 45 minutes at room temperature, and color development is determined at OD405nm. The quantitation of active PAI-1 bound to tPA at varying concentrations of the test compound is used to determine the IC50. Results are analyzed using a logarithmic best-fit equation. The assay sensitivity is 5 ng/ml of human PAI-1 as determined from a standard curve ranging from 0-100 ng/ml.

SMILES strings stand for the structures. pIC50: −log10 of the molar value.

T1 sequence (P05121 24-402): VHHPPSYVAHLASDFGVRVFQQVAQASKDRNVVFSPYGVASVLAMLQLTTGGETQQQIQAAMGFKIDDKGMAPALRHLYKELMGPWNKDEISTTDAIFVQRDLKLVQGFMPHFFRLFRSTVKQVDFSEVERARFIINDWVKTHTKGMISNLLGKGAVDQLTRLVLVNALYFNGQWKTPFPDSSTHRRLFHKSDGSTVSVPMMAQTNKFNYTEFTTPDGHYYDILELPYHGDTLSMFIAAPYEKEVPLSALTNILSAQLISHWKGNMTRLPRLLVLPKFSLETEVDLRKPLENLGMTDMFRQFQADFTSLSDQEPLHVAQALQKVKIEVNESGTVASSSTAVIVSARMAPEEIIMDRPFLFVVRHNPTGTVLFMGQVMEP
human PAI-1, sequence (P05121 24-402): as above

As a reminder, the inhibition is the percentage by which the read-out fell short of the control. One may read the melting point as the temperature of the solid-liquid transition. As a reminder, the pIC50 is the IC50 on a negative log10 scale, so that one unit is a factor of ten. Read a low pIC50 as a high IC50. The compound `c1ccc(-c2ncc(-c3ccc4cc(OCc5nnn[nH]5)ccc4c3)o2)cc1` [Example 1, 5-({[6-(2-phenyl-1,3-oxazol-5-yl)-2-naphthyl]oxy}methyl)-1H-tetraazole] displayed a melting point of 239 to 241 °C. In data set [1], the inhibition at 10 µM amounted to 17% and the inhibition at 25 µM was 65%. The same compound showed a pIC50 against human PAI-1 of 4.16.

The compound `CCCCc1oc2ccccc2c1-c1ncc(-c2ccc3cc(OCc4nnn[nH]4)ccc3c2)o1` [Example 2, 5-[({6-[2-(2-butyl-1-benzofuran-3-yl)-1,3-oxazol-5-yl]-2-naphthyl}oxy)methyl]-1H-tetraazole] returned a melting point of 238 to 240 °C. Further, in data set [1], the inhibition at 10 µM was 12% and the inhibition at 25 µM amounted to 52%. For the same compound, the pIC50 on human PAI-1 is 4.71.

`CCCCc1oc2ccccc2c1-c1ncc(-c2ccc3cc(OC(Cc4ccccc4)C(=O)O)ccc3c2)o1` (centres unmarked) [Example 3, 2-({6-[2-(2-butyl-1-benzofuran-3-yl)-1,3-oxazol-5-yl]-2-naphthyl}oxy)-3-phenylpropanoic acid] came in with a melting point of 174 to 177 °C. Also, in data set [1], the inhibition at 10 µM is 32% and the inhibition at 25 µM came out at 66%. Moreover, the pIC50 against human PAI-1 was 4.58.

For the compound `CCCCc1oc2ccccc2c1-c1ncc(-c2ccc3cc(OCC(=O)O)ccc3c2)o1` [Example 4, ({6-[2-(2-butyl-1-benzofuran-3-yl)-1,3-oxazol-5-yl]-2-naphthyl}oxy)acetic acid], the melting point was in the range of 214 to 216 °C. In data set [1], the inhibition at 10 µM was found to be 23% and the inhibition at 25 µM is 46%. Besides, the pIC50 on human PAI-1 is 4.64.

`O=C(O)C(Cc1ccccc1)Oc1ccc2cc(-c3cnc(-c4cn(Cc5ccccc5)c5ccccc45)o3)ccc2c1` (centres unmarked) [Example 5, 2-({6-[2-(1-benzyl-1H-indol-3-yl)-1,3-oxazol-5-yl]-2-naphthyl}oxy)-3-phenylpropanoic acid] had a melting point of 125 to 127 °C. Besides, in data set [1], the inhibition at 10 µM came to 1% and the inhibition at 25 µM worked out at 34%. The negative-log IC50 (pIC50) at human PAI-1 was 4.32.

`O=C(O)COc1ccc2cc(-c3cnc(-c4cn(Cc5ccccc5)c5ccccc45)o3)ccc2c1` [Example 6, ({6-[2-(1-benzyl-1H-indol-3-yl)-1,3-oxazol-5-yl]-2-naphthyl}oxy)acetic acid] displayed a melting point of 238 to 242 °C. Further, in data set [1], the inhibition at 10 µM was 4% and the inhibition at 25 µM worked out at 28%.

Compound `c1ccc(Cn2cc(-c3ncc(-c4ccc5cc(OCc6nnn[nH]6)ccc5c4)o3)c3ccccc32)cc1` [Example 7, 1-benzyl-3-{5-[6-(1H-tetrazol-5-ylmethoxy)-2-naphthyl]-1,3-oxazol-2-yl}-1H-indole] showed a melting point of 244 to 246 °C. Also, in data set [1], the inhibition at 10 µM came to 19% and the inhibition at 25 µM turned out to be 61%.

`Cn1cc(-c2ncc(-c3ccc4cc(OC(Cc5ccccc5)C(=O)O)ccc4c3)o2)c2ccccc21` (centres unmarked) [Example 8, 2-({6-[2-(1-methyl-1H-indol-3-yl)-1,3-oxazol-5-yl]-2-naphthyl}oxy)-3-phenylpropanoic acid] displayed a melting point of 149 to 151 °C. In addition, in data set [1], the inhibition at 10 µM worked out at 2% and the inhibition at 25 µM amounted to 75%.

`Cn1cc(-c2ncc(-c3ccc4cc(OCC(=O)O)ccc4c3)o2)c2ccccc21` [Example 9, ({6-[2-(1-Methyl-1H-indol-3-yl)-1,3-oxazol-5-yl]-2-naphthyl}oxy)acetic acid] returned a melting point of 269 to 272 °C. In data set [1], the inhibition at 10 µM is 3% and the inhibition at 25 µM was 24%.

`Cn1cc(-c2ncc(-c3ccc4cc(OCc5nnn[nH]5)ccc4c3)o2)c2ccccc21` [Example 10, 1-methyl-3-{5-[6-(1H-tetrazol-5-ylmethoxy)-2-naphthyl]-1,3-oxazol-2-yl}-1H-indole] yielded a melting point of 254 to 256 °C. In data set [1], the inhibition at 10 µM amounted to 16% and the inhibition at 25 µM worked out at 35%.

Take `O=C(O)C(Cc1ccccc1)Oc1ccc2cc(-c3cnc(Cc4ccccc4)o3)ccc2c1` (centres unmarked) [Example 11, 2-{[6-(2-benzyl-1,3-oxazol-5-yl)-2-naphthyl]oxy}-3-phenylpropanoic acid]: the melting point lay in the range of 78 to 82 °C. Moreover, in data set [1], the inhibition at 10 µM was determined as 18% and the inhibition at 25 µM turned out to be 31%.

Consider `O=C(O)COc1ccc2cc(-c3cnc(Cc4ccccc4)o3)ccc2c1` [Example 12, {[6-(2-benzyl-1,3-oxazol-5-yl)-2-naphthyl]oxy}acetic acid], for which the melting point fell in the range of 236 to 238 °C. Further, in data set [1], the inhibition at 10 µM came to 0% and the inhibition at 25 µM is 26%.

`c1ccc(Cc2ncc(-c3ccc4cc(OCc5nnn[nH]5)ccc4c3)o2)cc1` [Example 13, 5-({[6-(2-benzyl-1,3-oxazol-5-yl)-2-naphthyl]oxy}methyl)-1H-tetraazole] had a melting point of 227 to 228 °C. For the same compound, in data set [1], the inhibition at 10 µM was found to be 11% and the inhibition at 25 µM stood at 23%.

`O=C(O)COc1ccc2cc(-c3cnc(Cc4ccc5ccccc5c4)o3)ccc2c1` [Example 14, ({6-[2-(2-naphthylmethyl)-1,3-oxazol-5-yl]-2-naphthyl}oxy)acetic acid] gave a melting point of 258 to 260 °C. Further, in data set [1], the inhibition at 10 µM came out at 12% and the inhibition at 25 µM amounted to 17%.

Turning to `c1ccc2cc(Cc3ncc(-c4ccc5cc(OCc6nnn[nH]6)ccc5c4)o3)ccc2c1` [Example 15, 5-[({6-[2-(2-naphthylmethyl)-1,3-oxazol-5-yl]-2-naphthyl}oxy)methyl]-1H-tetrazole], the melting point lay in the range of 179 to 182 °C. Besides, in data set [1], the inhibition at 10 µM came out at 22% and the inhibition at 25 µM was found to be 48%.

`CCCCc1oc2ccccc2c1-c1ncc(-c2ccc3c(Br)c(OCc4nnn[nH]4)ccc3c2)o1` [Example 16, 5-[({1-bromo-6-[2-(2-butyl-1-benzofuran-3-yl)-1,3-oxazol-5-yl]-2-naphthyl}oxy)methyl]-1H-tetrazole] displayed a melting point of 235 to 237 °C. For the same compound, in data set [1], the inhibition at 10 µM is 11% and the inhibition at 25 µM came out at 16%.

The compound `CCCCc1oc2ccccc2c1-c1ncc(-c2ccc3cc(OCc4ccc(C(=O)O)cc4)ccc3c2)o1` [Example 17, 4-[({6-[2-(2-butyl-1-benzofuran-3-yl)-1,3-oxazol-5-yl]-2-naphthyl}oxy)methyl]benzoic acid] gave a melting point of 251 to 254 °C. Moreover, in data set [1], the inhibition at 10 µM stood at 14% and the inhibition at 25 µM stood at 20%.

Take `CCCCc1oc2ccccc2c1-c1ncc(-c2ccc3cc(OCc4ccc(C(=O)O)cc4C(=O)O)ccc3c2)o1` [Example 18, 4-[({6-[2-(2-butyl-1-benzofuran-3-yl)-1,3-oxazol-5-yl]-2-naphthyl}oxy)methyl]isophthalic acid]: the melting point was in the range of 285 to 287 °C. In addition, in data set [1], the inhibition at 10 µM is 33% and the inhibition at 25 µM turned out to be 62%.

`CCCCc1oc2ccccc2c1-c1ncc(-c2ccc3c(Br)c(OCc4ccc(C(=O)O)cc4)ccc3c2)o1` [Example 19, 4-[({1-bromo-6-[2-(2-butyl-1-benzofuran-3-yl)-1,3-oxazol-5-yl]-2-naphthyl}oxy)methyl]benzoic acid] registered a melting point of 281 to 283 °C. Besides, in data set [1], the inhibition at 10 µM was determined as 12% and the inhibition at 25 µM came out at 23%.

For the origin of these results see US7754747B2, “Oxazolo-naphthyl acids” (Wyeth LLC, priority 2004, dated 2010).
